Reference: patent US12234477B2, “Scalable primate pluripotent stem cell aggregate suspension culture” (ViaCyte, Inc., priority 2008, dated 2025)
“Also recorded” adds a separate entry of the source.

How the values were obtained:
R1 mouse ES cells = experiment: Inhibition of ErbB1 and ErbB2 signaling in mouse ES cells, alkaline phosphatase staining; type: cell-based
Description: AG1478 and AG879 were used to examine the role of HRG/ErbB signaling in mouse ES cells. R1 mouse ES cells were maintained in standard conditions in DMEM, 10% FBS, 10% KSR, 0.5 U/mL penicillin, 0.5 U/mL streptomycin, 1×NEAA, 1 mM sodium pyruvate, 1000 U/mL LIF (ESGRO), 0.1 mM β-ME, and were passaged with 0.5% trypsin/EDTA. 2×10^5 cells/well were plated in 6 well trays on […]™ diluted at 1:1000. The day after plating, DMSO (carrier control), 1-50 μM AG1478, or 1-50 μM AG879 was added with fresh medium. The cells were cultured an additional 8 days, with daily media changes. The cultures were then fixed and stained for alkaline phosphatase activity.

BG01v cells = experiment: Inhibition of proliferation of BG01v cells by ErbB tyrosine kinase inhibitors, alkaline phosphatase staining; type: cell-based
Description: To examine the effect of known inhibitors of ErbB tyrosine kinases in hESCs, BG01v cells were plated in 6 well trays on […]™ diluted at 1:1000, in defined culture medium (DC) containing 100 ng/mL LongR3-IGF1, 8 ng/mL FGF2 and 1 ng/mL Activin A. On the next day, DMSO (carrier control), 50 nM-20 μM AG1478 (an ErbB1 inhibitor), or 100 nM-20 μM AG879 (an ErbB2 inhibitor) was added with fresh medium. The cells were cultured for an additional 5 days, with daily media changes. The cultures were then fixed and stained for alkaline phosphatase activity.

BG02 hESCs = experiment: Proliferation of hESCs growing in conditioned medium (CM) with AG825; type: cell-based
Source text: FIGS. 6A-6F depict the inhibition of proliferation of BG02 cells grown in conditioned media (CM). […] The mean and range of normalized relative intensity is plotted (right).
(§1) Colony and cell-counting assays confirmed that LongR3-IGF1 and HRG played the major roles in self-renewal and proliferation in the context of one of the embodiments of the present invention (FIG. 6D, FIG. 6E). Phosphorylation of IGF1R, IR, […], ErbB2, and ErbB3 was also observed in both steady-state DC-HAIF cultures, and in starved cultures that were pulsed with DC-HAIF (FIG. 6F).

ErbB2 = target: T1, ErbB2 (Homo sapiens, UniProt P04626); experiment: Western blotting of ErbB2 autophosphorylation in starved/heregulin pulsed hESCs in DC-HAIF; type: cell-based
T1 construct: endogenous in cells; host or cells: human embryonic stem cells (hESCs) grown in DC-HAIF
Source text: as §1

hESCs = experiment: hESC proliferation at physiological levels of insulin and IGF1, cell counting; type: cell-based, human; conditions: titrated about 0.2 to about 200 ng/mL, counting after 5 days
Description: Essentially all of the reported culture conditions for hESCs to date include supraphysiological levels of insulin, which can stimulate both IR and IGF1R. To distinguish the activities that insulin and insulin-substitutes exert, compared to IGF1, hESCs are cultured in defined media conditions in physiological levels of these growth factors. The concentrations of insulin and IGF1 are titrated from about 0.2 to about 200 ng/mL and cell proliferation is monitored by counting cells after 5 days. Cultures that expand successfully are serially passaged 5 times.

BG02 cells = experiment: Suspension aggregates of BG02 cells in DC-HAIF with and without Y27632, cell counting; type: cell-based, human
Description: To attenuate the loss of cells after initial passaging in suspension, an inhibitor of apoptosis was added to the medium. Cells were passaged as in Example 12, except that Y-27632, an inhibitor of p160-Rho-associated coiled-coil kinase (ROCK), was added to the medium.
Suspension aggregates of BG02 cells were formed by seeding 2×10^6 single cells in 6-well dishes in 3 mL DC-HAIF medium, at 100 rpm on a rotating platform in an incubator (Table 4, Experiment A). 10 μM Y27632 ROCK inhibitor was added to test wells for the course of the experiment and the cultures observed daily and counted after 24 hours (day 1) and after 4 or 5 days. […] Cell counting confirmed that more viable cells were present in the presence of inhibitor (Table 4, Experiment A). This difference in cell number persisted throughout the course of the culture period, with more cells also observed on day 4, compared to cultures without inhibitor. As with previous suspension culture experiments, cells exposed to Y27632 could also be serially passaged, and maintained in an undifferentiated state (not shown). […]
Because of the enhanced survival and aggregation observed in the presence of Y27632, an experiment was performed to examine if it was possible to reduce the number of cells used to seed suspension cultures (Table 4, Experiment C). […] To determine if addition of a ROCK inhibitor would allow cell seeding at lower densities, a range of cell concentrations (from about 2×10^6 total cells down to about 1×10^5 total cells was used to seed suspension cultures in 6-well trays cells in 3 mL DC-HAIF. 10 μM Y27632 was added to all conditions, and the cell number and viability assessed on day 5. Successful aggregation and expansion was observed even at low seeding densities. An approximately 13 fold expansion of viable cells was observed even in cultures that were only seeded with 1×10^5 cells. Inhibition of ROCK with Y27632 therefore facilitated initial survival of hESCs at much lower densities in this suspension system.

[1] = test system: hES-derived pancreatic epithelial and endocrine type cells; experiment: Re-aggregation of dissociated stage 4 or stage 5 adherent cultures; type: cell-based, human; conditions: 10 μM
Description: Adherent cultures at either stage 4 (about d10-d14 into the differentiation protocol; pancreatic epithelial and endocrine type cells) or stage 5 (about day 16 to day 30 into the differentiation protocol; endocrine precursor and endocrine cells) were similarly dissociated into single cells, counted, and pelleted. The cell pellet was then resuspended in DMEM CMRL supplemented Pen/Strep and GLUTAMAX™, and 1X B27-supplement and DNase (50-100 μg/mL, Roche Diagnostics) and 0-2% FBS. […] Cells were equally distributed into 6-well plates and placed on a rotating platform at 100 rpm to 140 rpm form 4 hours to overnight substantially as described above.

ES cells = experiment: Suspension cultures in various media, cell counting; type: cell-based; conditions: in all conditions (HAIF, HAI, HI)
Description: To determine if suspensions of ES cells could be cultured in the absence of FGF2 and/or Activin A, ES cells were cultured in a variety of media, with and without these factors. […] In addition, the cells in each media were successfully passaged with no morphological signs of differentiation.

[2] = test system: hES-derived cell aggregates; experiment: QPCR of endocrine progenitor markers after stage 3 with different noggin concentrations; type: cell-based, human; conditions: lower concentration (25 ng/mL vs 50 ng/mL) in stage 3; any given cell density
Description: Human ES cell aggregates and hES-derived cell aggregates, including d0 cell aggregates produced directly in differentiation media, were generated substantially as described above. After about five (5) days of differentiation through stages 1 and 2, the differentiating cell aggregates were pooled and re-aliquoted into individual wells at different seeding densities, e.g., a 28 mL suspension of foregut endoderm stage cell aggregate suspension was seeded or re-aliquoted at 4, 6, 8 or 10 mL per well (a 2.5-fold range of cell densities). This cell distribution was carried out in duplicate and one set of wells was fed with a stage 3 media (DMEM/PenStrep/GLUTAMAX™+1% B27 supplement (vol/vol)+0.25 uM KAAD-cyclopamine+3 nM TTNPB) containing noggin at 50 ng/mL and the other set of wells contained noggin at 25 ng/mL. Stage 3 proceeded for 3 days with daily media exchange. Cell samples were taken in duplicate for real-time QPCR analysis at the end of the three days of stage 3 (or about day 8) and again at after stage 4 (or about day 14).

[3] = morphology, alkaline phosphatase activity

T1 sequence (P04626 23-1255): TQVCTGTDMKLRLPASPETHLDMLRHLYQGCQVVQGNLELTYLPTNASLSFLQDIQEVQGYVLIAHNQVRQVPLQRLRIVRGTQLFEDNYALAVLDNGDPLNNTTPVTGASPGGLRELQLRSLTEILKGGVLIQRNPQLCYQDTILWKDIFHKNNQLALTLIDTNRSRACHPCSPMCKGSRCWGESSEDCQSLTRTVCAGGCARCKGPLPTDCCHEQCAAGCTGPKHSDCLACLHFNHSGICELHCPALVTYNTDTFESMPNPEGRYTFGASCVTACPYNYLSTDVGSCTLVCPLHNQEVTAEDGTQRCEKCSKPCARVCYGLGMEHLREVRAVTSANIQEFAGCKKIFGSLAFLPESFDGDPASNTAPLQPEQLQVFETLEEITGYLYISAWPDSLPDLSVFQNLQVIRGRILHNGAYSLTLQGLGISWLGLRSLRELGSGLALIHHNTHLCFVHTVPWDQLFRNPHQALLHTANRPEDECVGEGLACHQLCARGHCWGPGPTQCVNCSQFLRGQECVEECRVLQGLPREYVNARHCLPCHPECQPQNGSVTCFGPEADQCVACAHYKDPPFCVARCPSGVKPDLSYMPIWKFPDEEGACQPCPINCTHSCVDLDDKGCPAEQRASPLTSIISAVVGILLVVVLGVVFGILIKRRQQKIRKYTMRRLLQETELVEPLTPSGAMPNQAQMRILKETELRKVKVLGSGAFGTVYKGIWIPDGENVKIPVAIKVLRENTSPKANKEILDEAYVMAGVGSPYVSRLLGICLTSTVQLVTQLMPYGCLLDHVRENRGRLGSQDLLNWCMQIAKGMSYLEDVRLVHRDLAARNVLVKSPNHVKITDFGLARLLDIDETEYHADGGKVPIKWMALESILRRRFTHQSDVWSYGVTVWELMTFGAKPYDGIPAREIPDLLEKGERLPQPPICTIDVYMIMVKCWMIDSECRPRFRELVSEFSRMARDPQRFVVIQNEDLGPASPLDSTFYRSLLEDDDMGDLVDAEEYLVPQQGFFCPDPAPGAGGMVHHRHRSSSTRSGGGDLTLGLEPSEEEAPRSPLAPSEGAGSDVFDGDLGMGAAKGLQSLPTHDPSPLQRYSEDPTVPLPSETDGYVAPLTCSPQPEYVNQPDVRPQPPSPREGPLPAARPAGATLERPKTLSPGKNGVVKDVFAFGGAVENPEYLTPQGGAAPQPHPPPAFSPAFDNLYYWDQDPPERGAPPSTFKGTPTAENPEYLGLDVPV

COc1cc2ncnc(Nc3cccc(Cl)c3)c2cc1OC [AG1478]
effect on cell proliferation (R1 mouse ES cells; 1-50 μM, 8 days, 10% FBS, 10% KSR, LIF): no apparent affect on cell proliferation; also recorded: did not overtly inhibit proliferation | effect on cell proliferation (BG01v cells; 50 nM-20 μM, 5 days): neither DMSO nor AG1478 (50 nM-20 μM) had an apparent affect on cell proliferation; also recorded: did not appear to affect proliferation

COc1cc(/C=C(\C#N)C(N)=O)cc(CSc2nc3ccccc3s2)c1O [AG825]
cell death (BG02 hESCs): without widespread cell death | proliferation of hESCs (BG02 hESCs; 50 μM): significantly inhibited proliferation | autophosphorylation of ErbB2 at tyrosine-1248 (ErbB2): inhibited autophosphorylation of ErbB2 at tyrosine-1248; also recorded: inhibits ErbB2 Y1248 phosphorylation

insulin: protein that binds to the insulin receptor
expansion of hESC cultures (hESCs): do not

CC(C)(C)c1cc(/C=C(\C#N)C(N)=S)cc(C(C)(C)C)c1O [AG879]
proliferation (R1 mouse ES cells; 20 μM, 8 days): may have slowed proliferation | cell growth (R1 mouse ES cells; 50 μM, 8 days): substantially inhibited cell growth | concentration required to inhibit proliferation, mESCs relative to BG01v cells (R1 mouse ES cells; mESCs vs BG01v cells grown in defined conditions): ~10 × | differentiation of mESCs grown in inhibitor (R1 mouse ES cells; [3]): did not appear to differentiate | cell growth (BG01v cells; 5 μM, 5 days): substantially inhibited cell growth; also recorded: substantially slowed cell growth | cell death (BG01v cells; 20 μM): caused cell death | differentiation of cultures grown in inhibitor (BG01v cells; [3]): did not appear to differentiate

C[C@@H](N)[C@H]1CC[C@H](C(=O)Nc2ccncc2)CC1 [Y27632]
initial survival and aggregation of hESCs in suspension culture (BG02 cells; 10 μM, compared to medium without inhibitor): much larger aggregates were formed; also recorded: enhanced initial survival and aggregation of hESCs; also recorded: enhancement of hESC aggregation | cell number when the aggregates were split again (BG02 cells; Expt. A, compared to cultures without inhibitor): almost twice as many cells were observed | differentiation state, RT-PCR of pluripotency markers (BG02 cells; suspension culture in the presence of Y27632): remained undifferentiated | cell survival [1]: supported cell survival | yield of cells generated by day 5 (ES cells): increased the yield of cells

IGF1: insulin-like growth factor
expansion of hESC cultures (hESCs): support the expansion of hESC cultures

B1: noggin: recombinant human Noggin, BMP antagonist (protein, UniProt Q13253 28-232, looked up)
Noggin: QHYLHIRPAPSDNLPLVDLIEHPDPIFDPKEKDLNETLLRSLLGGHYDPGFMATSPPEDRPGGGGGAAGGAEDLAELDQLLRQRPSGAMPSEIKGLEFSEGLAQGKKQRLSKKLRRKLQMWLWSQTFCPVLYAWNDLGSRFWPRYVKVGSCFSKRSCSVPEGMVCKPSKSVHLTVLRWRCQRRGGQRCGWIPIQYPIISECKCSC
endocrine progenitor cell types, expression of NGN3 and NKX2-2 [2]: reduced expression of NGN3 and NKX2-2
